Experimental data: patent US20010029239A1, “New herbicidal compositions” (priority 1999, published 2001)

experiment: Pre-emergence (experimental example 1) and post-emergence (experimental example 2) herbicidal tests, reported together; assay type: in vivo; settings: 336 h; one or more weed species, in one or both of experimental examples 1 (pre-emergence, 250 g/ha) and 2 (post-emergence, 250 g/ha or less); two weeks after treatment, versus untreated control; read-out: reduction in the growth of one or more weed species
Experimental: Seed of various broad-leaf and grass weed species were sown and herbicide, dissolved in a mixture of acetone and water, was applied at a rate of 250 g/ha to the soil surface. The said weeds are Amaranthus retroflexus, Abutilon theophrasti, Galium aparine, Ipomoea purpurea, Setaria viridis, Alopecurus myosuroides, Avena fatua and Echinochloa crus-calli. Two weeks after treatment the percentage reduction in plant growth was assessed in comparison with an untreated control. Seed of the various weed species, as listed in experimental example 1, were sown and grown up to a 1-3 leaves stage. A post-emergence application of herbicide, dissolved in a mixture of acetone and water, was applied at a rate of 250 g/ha or less. Two weeks after treatment the percentage reduction in plant growth was assessed, in comparison with an untreated control.

SMILES | pest or weed control at up to 250 g/ha
COC=C(Oc1cccc(OC(=COC)C(=O)OC)c1C(=O)O)C(=O)OC [Compound 1, 2,6-bis(2-methoxy-1-methoxycarbonyl-vinyloxy)benzoic acid] | ≥ 80%
COC=C(Oc1cccc(COC(C)=O)c1C(=O)O)C(=O)OC [Compound 2, methyl 2-(3-acetoxymethyl-2-carboxyphenoxy)-3-methoxypropenoate] | ≥ 80%
C#CCOC(=O)c1c(OC(=COC)C(=O)OC)cccc1OC(=COC)C(=O)OC [Compound 13, propargyl 2,6-bis(2-methoxy-1-methoxycarbonyl-vinyloxy)benzoate] | ≥ 80%
COC=C(Oc1cccc(COc2ccccc2)c1C(=O)O)C(=O)OC [Compound 16, methyl 2-(2-carboxy-3-phenoxymethylphenoxy)-3-methoxypropenoate] | ≥ 80%
COC=C(Oc1cccc(COc2ccc(Cl)cc2)c1C(=O)O)C(=O)OC [Compound 17, methyl 2-(2-carboxy-3-(4-chlorophenoxymethyl)phenoxy)-3-methoxypropenoate] | ≥ 70%
COC=C(Oc1cccc(COc2ccc(C#N)cc2)c1C(=O)O)C(=O)OC [Compound 18, methyl 2-[2-carboxy-3-(4-cyanophenoxymethyl)phenoxy]-3-methoxypropenoate] | ≥ 70%
COC=C(Oc1cccc(COc2ccc(OC)cc2)c1C(=O)O)C(=O)OC [Compound 19, methyl 2-[2-carboxy-3-(4-methoxyphenoxymethyl)phenoxy]-3-methoxypropenoate] | ≥ 80%
COC=C(Oc1cccc(COc2ccc(C)cc2)c1C(=O)O)C(=O)OC [Compound 20, methyl 2-[2-carboxy-3-(4-methylphenoxymethyl)phenoxy]-3-methoxypropenoate] | ≥ 70%
